Five compounds from patent US20090298783A1, “Cosmetic Compositions” (Cognis IPanagement GmbH, priority 2006, published 2009) can be followed below.

Data set [1] concerns GMCSF. Kind of data set: Nickel-induced GMCSF release from human keratinocytes (ELISA). It counts as cell-based. The note with it: 48 hours. As to the method: (§1) The soothing potential of silybin, piperin, rhapontin, nortrachelogenine and arctiin was evaluated on primary culture of human keratinocytes treated by a nickel salt (nickel chloride, Sigma) according to the method of Ermolli M, et al. “Nickel, cobalt and chromium-induced cytotoxicity and intracellular accumulation in human HaCaT keratinocytes” [Toxicology. 2001 Feb. 21; 159(1-2): 23-31] and compared to hydrocortisone (HOC; Sigma, France).
(§2) After a growth phase in medium enriched by fetal calf serum, the cells were treated with the nickel salt and with the test compounds. After 48 hours at 37° C., CO2=5%, the level of released GMCSF (ELISA method) and cell viability (MTT test) were determined.

Data set [2] concerns primary culture of human keratinocytes. Kind of data set: Cell viability (MTT test) of nickel-treated human keratinocytes. The note with it: nickel salt alone at 0.75 mM, 48 hours. As to the method: as §1, §2
A general note: Tetrazolium assays rely on reduction of a dye to a coloured formazan, in cell work by metabolically active cells.

[3] abbreviates: first set, Ni 0.75 mM (=100) + test compound at 0.001%, mean +/- SEM on 3 separate assays.

Marks after values point to notes of the source that are not given here.

Take `C[C@]12CCC(=O)C=C1CC[C@@H]1[C@@H]2[C@@H](O)C[C@@]2(C)[C@H]1CC[C@]2(O)C(=O)CO` [HOC, hydrocortisone, reference compound]: in data set [1] (second set, Ni 0.75 mM (=100) + test compound at 1 μM, mean on 1 assay in triplicate), the GMCSF released is 52 percentage referring to control.

For the compound `[Cl][Ni][Cl]` [Nickel (Ni), nickel chloride], the MTT is 68 +/− 9 percentage referring to control in data set [2] (first set, mean +/- SEM on 3 separate assays); “distinctly decreased cell viability” in data set [2] (first set, mean +/- SEM on 3 separate assays, listed as nickel); 33 percentage referring to control in data set [2] (second set, mean on 1 assay in triplicate).

As to `O=C(/C=C/C=C/c1ccc2c(c1)OCO2)N1CCCCC1` [piperine, (E,E)-1-[5-(1,3-benzodioxol-5-yl)-1-oxo-2,4-pentadienyl]piperidine], the GMCSF released in data set [1] (setting [3]) is recorded as 79 +/− 14 percentage referring to control; in data set [1] (first set, Ni 0.75 mM (=100) + test compound at 0.003%, mean +/- SEM on 3 separate assays), 29 +/− 13* percentage referring to control; in data set [1] (first set, Ni 0.75 mM (=100) + test compound at 0.003%, mean +/- SEM on 3 separate assays, listed as Piperine) it was “significantly lowered”.

As to `COc1ccc(/C=C/c2cc(O)cc(O[C@@H]3O[C@H](CO)[C@@H](O)[C@H](O)[C@H]3O)c2)cc1O` [rhapontin, 3,3′,5-Trihydroxy-4′-methoxystilbene 3-b-D-glucopyranoside], the GMCSF released is recorded as 72 percentage referring to control in data set [1] (second set, Ni 0.75 mM (=100) + test compound at 0.01%, mean on 1 assay in triplicate) and “lowered” in data set [1] (second set, Ni 0.75 mM (=100) + test compound at 0.01%, mean on 1 assay in triplicate, listed as Rhapontin).

With `COc1cc([C@H]2Oc3cc([C@H]4Oc5cc(O)cc(O)c5C(=O)[C@@H]4O)ccc3O[C@@H]2CO)ccc1O` [silybin], the GMCSF released is 88 +/− 19 percentage referring to control in data set [1] (first set, Ni 0.75 mM (=100) + test compound at 0.0003%, mean +/- SEM on 3 separate assays); 48 +/− 12* percentage referring to control in data set [1] (setting [3]); “significantly lowered” in data set [1] (first set, Ni 0.75 mM (=100) + test compound at 0.001%, mean +/- SEM on 3 separate assays, listed as Silybin).
